GI50 and TGI data for eight compounds are collected here from PubChem BioAssay (NCI).

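All cell lines were grown in 96-well plates and treated with compound for 48 hours. GI50 = concentration required for 50% inhibition of growth. TGI: total growth inhibition.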 Where only a bound is given, the exact number is not on record here.

Among the test systems are BT-549 breast; SK-MEL-2 melanoma; SF-295 CNS; SK-MEL-5 melanoma; 786-0 renal; HT29 colon; RPMI-8226 leukemia; ACHN renal; HCC-2998 colon; M14 melanoma.
What all share (assay): NCI-60 cell line screen, 48 h

Take `O=c1[nH]c2ccccc2n2cc3ccccc3c12`: the GI50 is 18.9 µM in the assay with BT-549 breast; 20.6 µM with SK-MEL-2 melanoma; 17.9 µM in the assay on SF-295 CNS; 1.89 µM in the assay with SK-MEL-5 melanoma; 4.23 µM with 786-0 renal; 4.37 µM with HT29 colon. Moreover, the GI50 in the assay on RPMI-8226 leukemia was 3.7 µM; with ACHN renal, 1.81 µM; in the assay with HCC-2998 colon it was 5.84 µM; in the assay on M14 melanoma, 6.39 µM. For the same compound, the TGI was 64.3 µM in the assay with BT-549 breast; 38.8 µM with SK-MEL-2 melanoma; 35.8 µM in the assay on SF-295 CNS; 14.9 µM with SK-MEL-5 melanoma; 18.1 µM with 786-0 renal; greater than 100 µM in the assay with HT29 colon. The TGI with RPMI-8226 leukemia was determined as 22.6 µM; in the assay on ACHN renal, 7.18 µM; in the assay with HCC-2998 colon it was 20.8 µM; with M14 melanoma, 22.9 µM.

Consider `NCCCNc1nc2ccc(Cl)cc2c2c(=O)c3cc(F)ccc3sc12`, for which the GI50 in the assay with BT-549 breast is 14.3 µM; in the assay with SK-MEL-2 melanoma it was 12.4 µM; in the assay on SF-295 CNS, 12 µM; in the assay on SK-MEL-5 melanoma it was 13.6 µM; in the assay with 786-0 renal it was 1.92 µM; with HT29 colon it was 2.12 µM. In addition, the GI50 in the assay with RPMI-8226 leukemia is 2.77 µM; in the assay on ACHN renal, 1.94 µM; in the assay on HCC-2998 colon it was 1.89 µM; in the assay on M14 melanoma, 3.6 µM. In addition, the TGI in the assay on BT-549 breast was 29.6 µM; in the assay with SK-MEL-2 melanoma, 33.3 µM; with SF-295 CNS it was 26.5 µM; in the assay on SK-MEL-5 melanoma, 30.2 µM; with 786-0 renal, 5.88 µM; with HT29 colon, 4.94 µM. In addition, the TGI with RPMI-8226 leukemia was 9.79 µM; in the assay with ACHN renal, 4 µM; in the assay with HCC-2998 colon, 4.38 µM; in the assay on M14 melanoma it was 14.2 µM.

As for `C/C(=N\O)c1cccc(Nc2cc(-c3ccccc3)nc3c(O)cccc23)c1`, the GI50 is 11.8 µM in the assay on BT-549 breast; 8.34 µM with SK-MEL-2 melanoma; 0.671 µM with SF-295 CNS; 1.53 µM in the assay on SK-MEL-5 melanoma; 3.07 µM in the assay on 786-0 renal; 12.3 µM with HT29 colon. The GI50 with RPMI-8226 leukemia was 2.46 µM; in the assay with ACHN renal, 6.57 µM; with HCC-2998 colon, 3.68 µM; in the assay on M14 melanoma, 3.47 µM. The TGI in the assay with BT-549 breast is 52.3 µM; in the assay with SK-MEL-2 melanoma it was 27.2 µM; with SK-MEL-5 melanoma, 16 µM; in the assay on 786-0 renal, 11.5 µM; in the assay on HT29 colon it was 42.7 µM; with RPMI-8226 leukemia, 7.98 µM. Also, the values for the TGI with ACHN renal, in the assay on HCC-2998 colon and in the assay with M14 melanoma were 22.5 µM, 14.2 µM and 18.8 µM, respectively.

For the compound `COc1ncc(-c2ccc3nccc(C#CCN4CCN(S(C)(=O)=O)CC4)c3c2)cc1NS(=O)(=O)c1ccc(F)cc1F`, the GI50 with BT-549 breast is 0.039 µM; in the assay with SK-MEL-2 melanoma it was 0.116 µM; in the assay on SF-295 CNS it was 0.0684 µM; in the assay on SK-MEL-5 melanoma, 0.192 µM; in the assay on 786-0 renal, 0.0522 µM; in the assay on HT29 colon, 0.0237 µM. The GI50 in the assay on RPMI-8226 leukemia is 0.256 µM; with ACHN renal, 0.05 µM; in the assay on HCC-2998 colon, 0.0635 µM; in the assay on M14 melanoma, 0.0855 µM. The TGI was 0.874 µM in the assay on BT-549 breast; 1.13 µM with SK-MEL-2 melanoma; 1.17 µM with SF-295 CNS; 0.723 µM with SK-MEL-5 melanoma; 3.56 µM in the assay on 786-0 renal; 2.1 µM in the assay on HT29 colon. Also, the TGI in the assay on RPMI-8226 leukemia was 1.83 µM; in the assay on ACHN renal, 3.39 µM; with HCC-2998 colon, 1.25 µM; in the assay on M14 melanoma, 2.38 µM.

As for `O=[N+]([O-])/C=C/c1cc2ccc3ccccc3c2[nH]1`, the TGI with BT-549 breast is 4.44 µM; in the assay with SK-MEL-2 melanoma, 2.39 µM; in the assay on SF-295 CNS, 5.86 µM; in the assay with SK-MEL-5 melanoma, 3.26 µM; in the assay with 786-0 renal, 3.07 µM; in the assay with HT29 colon, 5.86 µM. The TGI in the assay with RPMI-8226 leukemia worked out at 0.708 µM; with ACHN renal, 2.68 µM; in the assay with HCC-2998 colon, 3.5 µM; in the assay with M14 melanoma, 3.33 µM.

As for `COc1cc2c3c(n(CCCN4CCCNCC4)c(=O)c2cc1OC)-c1cc2c(cc1C3=O)OCO2`, the GI50 with BT-549 breast was 2.2 µM; in the assay on SK-MEL-2 melanoma, 3.7 µM; in the assay with SF-295 CNS, 0.2 µM; with SK-MEL-5 melanoma, 1.34 µM; in the assay with 786-0 renal it was 0.268 µM; with HT29 colon it was 1.15 µM. In addition, the GI50 was 0.571 µM in the assay with RPMI-8226 leukemia, 0.193 µM in the assay with ACHN renal, 3.07 µM in the assay on HCC-2998 colon and 0.521 µM in the assay on M14 melanoma. Besides, the TGI stood at 11.5 µM in the assay with BT-549 breast; 17.6 µM with SK-MEL-2 melanoma; 2.66 µM in the assay with SF-295 CNS; 8.21 µM in the assay with SK-MEL-5 melanoma; 1.14 µM in the assay with 786-0 renal; 17.6 µM in the assay on HT29 colon. Also, the TGI in the assay on RPMI-8226 leukemia was found to be 2.1 µM; in the assay on ACHN renal, 0.751 µM; in the assay on HCC-2998 colon it was 9.45 µM; in the assay on M14 melanoma, 7.12 µM.

As to `Cc1cc(C(O)(c2ccc(Nc3ccccc3)cc2)c2ccc(Nc3ccc(S(=O)(=O)O)cc3)cc2)ccc1N` (centres undefined), the GI50 in the assay with BT-549 breast is 1.84 µM; with SK-MEL-2 melanoma, 1.55 µM; in the assay with SF-295 CNS it was 1.69 µM; in the assay with SK-MEL-5 melanoma, 1.26 µM; in the assay with 786-0 renal, 1.02 µM; in the assay with HT29 colon, 0.516 µM. The GI50 is 0.571 µM in the assay with RPMI-8226 leukemia, 1.29 µM in the assay on ACHN renal, 1.23 µM in the assay on HCC-2998 colon and 1.2 µM in the assay with M14 melanoma. For the same compound, the TGI in the assay with BT-549 breast is 5.61 µM; in the assay with SK-MEL-2 melanoma, 4.68 µM; with SF-295 CNS, 3.25 µM; in the assay on SK-MEL-5 melanoma, 2.58 µM; with 786-0 renal, 2.27 µM; in the assay on HT29 colon it was 2.34 µM. In addition, the TGI in the assay on RPMI-8226 leukemia stood at 2.99 µM; in the assay with ACHN renal it was 2.7 µM; in the assay on HCC-2998 colon it was 2.58 µM; in the assay with M14 melanoma, 2.98 µM.

Turning to `CCN(CC)CC(O)COc1c(Br)c(Br)c(Br)c2c1OC(C)(C)C2` (centres undefined), the GI50 is 4.5 µM in the assay on BT-549 breast; 3.55 µM with SK-MEL-2 melanoma; 1.1 µM in the assay with SF-295 CNS; 1.82 µM in the assay on SK-MEL-5 melanoma; 3.13 µM in the assay with 786-0 renal; 1.82 µM in the assay with HT29 colon. For the same compound, the GI50 with RPMI-8226 leukemia is 2.01 µM; with ACHN renal it was 4.94 µM; in the assay with HCC-2998 colon it was 3.42 µM; in the assay on M14 melanoma, 2.01 µM. For the same compound, the TGI in the assay on BT-549 breast came to 17.6 µM; with SK-MEL-2 melanoma, 15.4 µM; with SF-295 CNS it was 2.71 µM; in the assay with SK-MEL-5 melanoma, 3.24 µM; with 786-0 renal, 11.9 µM; with HT29 colon, 3.91 µM. Moreover, the TGI in the assay on RPMI-8226 leukemia was determined as 4.45 µM; in the assay on ACHN renal, 16.4 µM; in the assay with HCC-2998 colon it was 9.23 µM; with M14 melanoma, 4.12 µM.
